Test results as given in patent publication US20090048160A1, “Antimicrobial activity of bovine bactericidal/permeability-increasing protein (BPI)-derived peptides against Gram-negative bacterial mastitis isolates” (priority 2007, published 2009).
Like-named read-outs stand apart in the source and are kept apart here. Ends that are not written are not given here.

Experiments:
Type in all cases: cell-based
Enterobacter aerogenes = system: Enterobacter aerogenes
Source text: Bacterial isolates of Escherichia coli, Klebsiella pneumonia, Serratia marcescens, Pseudomonas aeruginosa, Enterobacter cloacae, and Enterobacter aerogenes, which were obtained from clinical cases of bovine mastitis, were used to assess the bactericidal activity of peptides in a broth microdilution assay. Isolates were obtained from repositories at Cornell University (gift of Dr. Y. H. Schukken; Quality Milk Production Services Program, Cornell University, Ithaca N.Y.) and the USDA Beltsville Agricultural Research Center. […] A. J. Bramley, Institute for Animal Health, Compton Laboratory, Newbury, England), which was originally isolated from a clinical case of mastitis ([…]. Dairy Res. 43: 205-211) was also used to assess the bactericidal activity of the peptides in biological fluids. Reference strains of E. coli (ATCC 25922) and Staphylococcus aureus (ATCC 29213) were obtained from a commercial source (American Type Culture Collection (ATCC), Manassas, Va.). To obtain fresh inoculums for evaluation, a sterile loop of each bacterial glycerol stock was streaked on a blood agar plate. After an overnight incubation at 35° C., a single uniform colony was picked and sub-passaged by streaking on a new blood agar plate and incubating the plate overnight at 35° C. To evaluate the antimicrobial activity of the peptides against various clinical mastitis bacterial isolates, the minimum inhibitory concentration (MIC) and the minimum bactericidal concentration (MBC) of these peptides against the isolates were determined using a standardized broth microdilution assay. In addition to the mastitis isolates, E. coli (ATCC 25922) and S. aureus (ATCC 29213) reference strains were evaluated. […] The assays were performed in accordance with Clinical and Laboratory Standards Institute (CLSI) [formerly National Committee for Clinical Laboratory Standards (NCCLS)] guidelines (National Committee for Clinical Laboratory Standards. 1999. Methods for Determining Bacterial Activity of Antimicrobial Agents: Approved Guideline. Wayne, Pa.; National Committee for Clinical Laboratory Standards. 2002. Performance Standards for Antimicrobial Disk and Dilution Susceptibility Tests for Bacteria Isolated from Animals: Approved Standard. 2nd Edition, Wayne, Pa.). […] The bacterial suspension was then diluted 100-fold in cation-adjusted Mueller-Hinton broth to reach a final inoculum concentration of 10^6 CFU/ml. […] A negative control column was included in the plate that included 100 μl of broth alone. The plates were incubated for 18 h at 35° C. with ambient air circulation and without shaking. The wells were subsequently inspected for cloudiness and pellet formation using a magnifying glass plate reader. The lowest concentration at which no pellet or cloudiness was apparent in a given well was identified as the MIC. […] The plates were incubated overnight at 35° C. and colonies subsequently enumerated. The MBC values were determined as the lowest concentration at which ≧99.9% of inoculated bacteria were killed. All assays were performed in triplicate and the MIC and MBC range reported.

E. coli strain P4 [1] = experiment: bactericidal activity in whey; conditions: for concentrations at which bactericidal activity was displayed: in the presence of whey; for Mean log10 colony forming units: whey, 6 hours at 37° C.
Method: (§1) Milk and blood samples were aseptically collected from 8 clinically healthy primiparous Holstein cows in mid-lactation with milk somatic cell counts of <150,000 cells/ml. All cows were determined to be free of intramammary pathogens by the absence of growth on blood agar plates spread with milk samples aseptically collected from each animal on 3 different days. For the preparation of whey, milk samples were centrifuged at 44,000×g at 4° C. for 30 min, and the fat layer removed with a spatula. The skim milk was transferred into another sterile tube, centrifuged for an additional 30 min, and the translucent supernatant collected. Milk and whey samples were pasteurized by heating at 63° C. for 30 min. For the preparation of serum, blood was collected from the coccygeal vein into vacutainer tubes containing gel and clot activator (BD Biosciences) for serum separation. The tubes were inverted ×5, the blood allowed to clot for 30 min, and the tubes centrifuged at 1500×g for 15 min. The clear serum supernatants were aseptically transferred into sterile tubes and heat-inactivated by incubating at 56° C. for 30 min. An aliquot of each sample was plated on blood agar plates and samples that were free of detectable bacterial growth were stored at −20° C.
(§2) Overnight bacterial cultures of E. coli strain P4 grown in trypticase soy broth were diluted 1:1,000 in brain heart infusion broth and incubated at 37° C. for 2 hours while shaking at 225 rpm. The log-phase bacteria were diluted 1:10 in brain heart infusion broth to obtain a final concentration of […]. 0.01 ml of the bacterial inoculum was added to a 1.5 ml sterile microcentrifuge tube containing 0.04 ml of serum, milk, or whey. A 0.05 ml aliquot of either peptide or CBS alone was added to each tube. The samples were then shaken at 100 rpm for 6 hours at 37° C. The sample mixtures were subsequently serially diluted in sterile phosphate-buffered saline and plated on MacConkey agar plates (BD Biosciences). The plates were incubated overnight at 37° C. and the colonies enumerated.
(§3) However, bBPI90-99,148-161 was able to inhibit >99% of the growth of E. coli in milk. Because milk appeared to have an inhibitory effect on the bactericidal activity of bBPI90-99,148-161, the peptides were subsequently evaluated for their ability to retain activity in whey, which is the casein-depleted, protein-rich liquid fraction of milk (Table 4).

E. coli strain P4 [2] = conditions: for Mean log10 colony forming units: milk, 6 hours at 37° C.
Method: as §1, §2
To determine whether bBPI142-169 and bBPI90-99,148-161 retained their bactericidal activity in physiological fluids, the peptides were incubated with E. coli strain P4 (1×10^5 CFU) in the presence of serum (Table 2) or milk (Table 3).
as §3

Sequence | MBC (Enterobacter aerogenes) | MIC (Enterobacter aerogenes) | concentrations at which bactericidal activity was displayed (E. coli strain P4 [1]) | Mean log10 colony forming units (E. coli strain P4 [1]; peptide 0.1 μg/ml) | Mean log10 colony forming units (E. coli strain P4 [1]; peptide 1 μg/ml) | Mean log10 colony forming units (E. coli strain P4 [1]; peptide 10 μg/ml) | Mean log10 colony forming units (E. coli strain P4 [1]; peptide 100 μg/ml) | Mean log10 colony forming units (E. coli strain P4 [2]; peptide 20 μg/ml) | Mean log10 colony forming units (E. coli strain P4 [2]; peptide 200 μg/ml) | Mean log10 colony forming units (E. coli strain P4 [2]; peptide 2000 μg/ml) | inhibition of the growth of E. coli (E. coli strain P4 [2]; strain P4, 2 mg/ml)
KWKARKNFIKGSSLGWLIQLFRKR [bBPI90-99,148-161] | 64 µg/mL | 64 µg/mL | ≥ 10 µg/mL | 8.17 log10 colony forming units | 7.97 log10 colony forming units | 0 log10 colony forming units | 0 log10 colony forming units | 8.65 log10 colony forming units | 7.89 log10 colony forming units | 6.55 log10 colony forming units | > 99%
NSQIRPLPDKGLDLSIRDASIKIRGKWKARKNFIK [bBPI65-99] | >256 µg/mL | >256 µg/mL | neither bBPI65-99 nor bBPI142-169 demonstrated bactericidal activity at any concentration tested | 8.47 log10 colony forming units | 8.26 log10 colony forming units | 8.16 log10 colony forming units | 7.36 log10 colony forming units | 8.69 log10 colony forming units | 8.54 log10 colony forming units | 8.06 log10 colony forming units | –
VRIHISGSSLGWLIQLFRKRIESLLQKS [bBPI142-169] | >256 µg/mL | – | neither bBPI65-99 nor bBPI142-169 demonstrated bactericidal activity at any concentration tested | 8.29 log10 colony forming units | 8.44 log10 colony forming units | 8.10 log10 colony forming units | 7.45 log10 colony forming units | 8.67 log10 colony forming units | 8.55 log10 colony forming units | 7.99 log10 colony forming units | –
